# Experimental data taken from patent publication US6653354B2, “NMDA antagonist comprising xenon” (priority 1999, dated 2003).
# Entries after “also recorded” stand apart in the source; their conditions may differ.
# Legend:
# humans [1] = settings: cited from earlier work
# [2] = test system: cortical neuronal-glial co-culture injured with NMDA; test: NMDA-induced neuronal injury in neuronal-glial co-culture (LDH release); format: cell-based, mouse
# Procedure: Dissociated murine cortical cell cultures were prepared using whole cerebral neocortices from fetal mice (14-17 days of gestation). Cortical glial cell cultures were prepared from early postnatal mice. After halting non-neuronal cell division with cytosine arabinoside the surviving cortical neuronal cells were plated onto the glial cell background and co-cultured.
# 15 days after originally harvesting the foetal cortical cells, the co-culture plates were exposed at room temperature to N-methyl,D-aspartate (NMDA), 10-1,000 μM, in a control salt solution (CCS) for 10 minutes. After carefully washing out with CCS, the cells were incubated for 6-24 hours in a Eagle's minimal essential medium free of glutamate or lactate dehydrogenase (LDH) but supplemented with glucose 25 mM, and NaHCO3 38 mM at 37° C. in humidified CO2 (5%) atmosphere. The degree of injury was determined by measuring the LDH released into the medium. A dose-response curve of NMDA-induced injury is shown in FIG. 10, as described hereinbefore.
# 75% of one atmosphere of xenon was delivered to the cells during and after exposure to a 750 μM NMDA, a concentration which produces a near maximal injury. The degree of injury was determined by measuring the LDH released into the medium (after correcting for “baseline” LDH release). Xenon reduced the injury produced by NMDA by more than 30%; when xenon was continued after NMDA exposure, the injury was further reduced by more than 55%. The results of the protective effect of xenon are illustrated in FIG. 12, as described hereinbefore.
# GABAA receptors = test: Currents evoked by exogenously applied GABA in voltage-clamped cultured hippocampal neurons; format: cell-based; settings: 100% xenon; cultured rat hippocampal neurons
# [3] = test system: GABAergic synapses (GABAA receptors) of hippocampal neurons; format: cell-based, rat
# Procedure: Hippocampal neurons were grown in culture using methods described previously (Segal M M et al, J. Neurophysiol. 1990, 64:1390-1399; Bekkers J M et al, Proc. Natl. Acad. Sci. U.S.A. 1991, 88:7834-7838; Mennerick S et al, J. Neurophysiol. 1995, 73:320-332). Briefly, hippocampi from Sprague Dawley rats (postnatal day 1-3) were dissected, roughly sliced and agitated in a papain-containing solution (20 units ml^−1) for 30 minutes at 37 EC. After washing with enzyme-free solution, the tissue was gently triturated with a fire-polished Pasteur pipette and the cells were plated out at a density of 8-10×10^4 cells ml^−1 and cultured (95% air/5% CO2) at 37° C. Glass coverslips used for culturing the cells were first coated with agarose (0.15% w/v) and then sprayed with a fine mist of poly-D-lysine (PDL) and collagen (0.1 mg ml^−1 PDL and 0.5 mg ml^−1 rat-tail collagen) from a glass micro-atomiser and sterilized by UV exposure. This produced micro-islands of permissive substrate with diameters of between 100 and 1000 μm. At 3-4 days after plating, when the glial cell layer was about 80% confluent, an anti-mitotic agent (cytosine β-D-arabinofuranoside, 5 μM) was added to arrest glial cell proliferation. Neuronal cultures were then allowed to mature for another 4-9 days. We used micro-islands which contained single isolated neurons whose axonal processes and dendritic trees formed multiple self-synapses (autapses). This procedure provided a large population of phenotypically identical monosynaptic connections.
# The neurons were voltage-clamped using the whole-cell recording technique (Axopatch 200 amplifier, Axon Instruments, Foster City, Calif.). Electrodes were fabricated from borosilicate glass and typically had resistances of between 3-5 MΩ. Series resistance was compensated by 75-90%. Neurons were voltage-clamped at −60 mV, and synaptic responses were stimulated by a 2 ms depolarising pulse to +20 mV. […] For the synaptic measurements, data were sampled at 50 kHz, filtered at 20 kHz (−3 dB, 8-pole Bessel) and stored on a computer. The extracellular recording solution was (mM) 137 NaCl, 5 KCl, 3 CaCl2, 5 HEPES, 10 glucose, 0.001 glycine, 0.0001 strychnine-HCl, titrated to pH 7.3 with NaOH; and the intracellular (pipette) solution was (mM) 140 KCl, 4 NaCl, 0.5 EGTA, 2 MgATP, 10 HEPES, titrated to pH 7.25 with KOH.
# Xenon solutions were prepared by first bubbling pure gases (oxygen, nitrogen or xenon) through fine sintered-glass bubblers in 250- or 500-ml Drechsel bottles filled with extracellular recording saline. […] (To minimise oxidization, the neurotoxins and neurotransmitters were excluded from the fully oxygenated saline.) During bubbling, the solutions were continually stirred at room temperature. These solutions were then mixed to achieve the desired final concentrations of the gases. Our control solutions usually contained 80% of the nitrogen solution and 20% of the oxygen solution, while our test solutions usually contained 80% of the xenon solution and 20% of the oxygen solution. Using a Bunsen water/gas partition coefficient of 0.0965 (Smith R A et al, Biochim. Biophys. Acta 1981, 645:327-338) we calculate that our standard test solution contained 3.4 mM xenon. Xenon (research grade, 99.993% pure) was supplied by BOC gases, Guildford, Surrey, UK. In all cases xenon was pre-applied to the neurons for at least 30 seconds before the initiation of synaptic currents.
# In order to obtain an estimate for the total charge transfer, the EPSCs or IPSCs were numerically integrated.
# humans [4] = test: MAC / anaesthetic EC50 in humans; format: in vivo; settings: 37° C.
# Procedure: The gaseous concentration of xenon which prevents a response to a painful stimulus (i.e. MAC) appears to vary among species, being 71% atm in humans (Cullen SC et al, Anesthesiology 1969, 31:305-309), 98% atm in rhesus monkeys (Whitehurst S L et al, J. Neurosurg. Anesthesiol. 1994, 6:275-279) and 161% atm in rats (Koblin D D et al, Anesth. Analg. 1998, 87:419-424). When these values are converted to free aqueous concentrations at 37° C. (Franks N P et al, Br. J. Anaesth. 1993, 71:65-76; Franks N P et al, Anesthesiology, 1996, 84:716-720) using an Ostwald water/gas partition coefficient of 0.0887 (Weathersby P K et al, Undersea Biomed. Res. 1980, 7:277-296), the values obtained are 2.5 mM, 3.4 mM and 5.6 mM for humans, monkeys and rats respectively, with the average value being 3.8 mM. For the experiments described herein, performed at room temperature, the concentration of xenon present in the standard test solution was 3.4 mM. […] This is illustrated with representative traces in FIG. 2.
# [5] = inhibitory currents + 3.4 mM xenon
smiles,measurement,setting,value
[Xe] [xenon],half maximal effective concentration EC50 as a human anaesthetic,humans [1]; human,71 % v/v
same,gaseous concentration which prevents a response to a painful stimulus (MAC),humans [1]; humans,71 % atm
same,protection against excitotoxicity (% of LDH released in the absence of xenon),"[2]; 250 μM NMDA for 10 minutes, low (sub-anaesthetic) concentrations of xenon, LDH after 6 hours",Highly significant protection
same,"excitotoxic injury (LDH release, normalised)","[2]; 250 μM NMDA, 75% xenon",greatly reduced
same,percentage of neuroprotection,"[2]; 75% (atm.) xenon, after 6 hours, 10 minute exposure to 250 μM NMDA",60%
same,reduction of the injury produced by NMDA (LDH release),[2]; 75% of one atmosphere xenon during exposure to 750 μM NMDA,more than 30%
same,reduction of the injury produced by NMDA (LDH release),[2]; 75% xenon continued after 750 μM NMDA exposure,more than 55%
same,effect on currents activated by 3 μM GABA,GABAA receptors,not significantly affected
same,effect on inhibitory (GABAergic) postsynaptic currents,[3]; 3.4 mM xenon,"negligible effects; also recorded: affected neither the peak value, nor the time course; also recorded: no significant effect"
same,Ipeak % change (means ± SEM),[3]; inhibitory currents + 3.4 mM (~1 MAC) xenon,−3.1 ± 2.2%
same,Decay half-time % change (means ± SEM),[3]; [5],−3.4 ± 2.4%
same,Ifast % change (means ± SEM),[3]; [5],−4.3 ± 2.8%
same,Islow % change (means ± SEM),[3]; [5],18.8 ± 12.4%
same,Qfast % change (means ± SEM),[3]; [5],1.5 ± 7.2%
same,Qslow % change (means ± SEM),[3]; [5],12.6 ± 8.4%
same,Total charge transfer % change (means ± SEM),[3]; [5],−2.3 ± 3.9%
same,τfast % change (means ± SEM),[3]; [5],−1.3 ± 3.5%
same,τslow % change (means ± SEM),[3]; [5],0.8 ± 6.0%
same,MAC converted to free aqueous concentration,humans [4],2.5 mM
